Series [1] has as its target T1, p-Hydroxymandelate oxidase (Hmo) Y128F mutant (Amycolatopsis orientalis, UniProt O52792, Y128F).
T1 construct: N-terminally His6-tagged protein
T1 sequence (O52792 1-357 Y128F): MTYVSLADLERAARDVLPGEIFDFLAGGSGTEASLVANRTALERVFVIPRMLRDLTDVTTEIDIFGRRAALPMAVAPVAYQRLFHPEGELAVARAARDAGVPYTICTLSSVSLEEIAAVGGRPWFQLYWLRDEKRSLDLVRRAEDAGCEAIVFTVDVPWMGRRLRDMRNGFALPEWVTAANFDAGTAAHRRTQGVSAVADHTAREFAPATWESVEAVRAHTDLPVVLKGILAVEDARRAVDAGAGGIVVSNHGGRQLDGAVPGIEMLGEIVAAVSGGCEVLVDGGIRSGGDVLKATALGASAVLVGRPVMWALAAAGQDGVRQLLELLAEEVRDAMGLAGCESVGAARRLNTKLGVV
Put plainly: crystal structure ([…] Å). The class given is binding.

The target in series [2] is T2, p-Hydroxymandelate oxidase (Hmo) (Amycolatopsis orientalis, UniProt O52792).
T2 construct: N-terminally His6-tagged protein
Put plainly: crystal structure ([…] Å). The class given is binding.

Series [3] deals with T1, p-Hydroxymandelate oxidase (Hmo) Y128F mutant. Put plainly: crystal structure ([…] Å). Format: binding. This is another data set of the same source.
Series [4] deals with T2, p-Hydroxymandelate oxidase (Hmo). Put plainly: crystal structure ([…] Å). The class given is binding. This is another data set of the same source.
The target in series [5] is T1, p-Hydroxymandelate oxidase (Hmo) Y128F mutant. Put plainly: crystal structure ([…] Å) and ITC. Format: binding.
For series [6], the target named is T2, p-Hydroxymandelate oxidase (Hmo). Put plainly: crystal structure ([…] Å) and ITC. Format: binding.
Series [7] has the same target. Put plainly: crystal structure ([…] Å). The class given is binding. The source holds these as a separate data set.
For series [8], the target named is T1, p-Hydroxymandelate oxidase (Hmo) Y128F mutant. Put plainly: crystal structure ([…] Å). Format: binding. The source holds these as a separate data set.
Series [9] deals with the molecule itself. Put plainly: crystal structure; hanging-drop vapor diffusion at 20°C, 35% Tascimate, 0.1 M bis-Tris propane pH 7.0; space group I422, one chain in the asymmetric unit, dimer by a crystallographic twofold axis.
Substrate in the series “purified protein”: O=C(O)[C@@H](O)c1ccccc1
Put plainly: purified protein. The note with it: FMN anchored by Tyr128, Arg163, His252 and Arg255; α-H points towards N5 of the isoalloxazine ring.

Regarding `O=C(O)[C@H](O)c1ccccc1` [RMA, (R)-mandelate], the “crystal structure (1.50 Å)” value in series [1] is on record as “When the Y128F mutant is bound by (R)-mandelate, the structural conformation is similar to that of (S)-mandelate”. With `C[C@H](C(=O)O)c1ccccc1` [SPPA, (S)-2-phenylpropionate], in series [2], the “crystal structure (1.60 Å)” value is listed as “(S)-2-phenylpropionate (inhibitor) all adopt a ‘V’ conformation with the carboxyl group orthogonal to the plane of the phenyl ring”. Also, in series [3], the “crystal structure (1.65 Å)” value is “complex with 2-phenylpropanoate, 6a0d”. As for `O=C(O)c1ccccc1` [BA, benzoate], in series [4], the “crystal structure (1.40 Å)” value was “complex with benzoate, 5zzs”.

As to `O=C(O)C(=O)c1ccccc1` [BF, benzoylformate], the Kd was determined as 1400 µM in [5] and 1900 µM in [6]. Turning to `O=C(O)[C@@H](O)c1ccc(O)cc1` [4HSMA, 4-hydroxy-(S)-mandelate], in series [7], the “crystal structure (1.32 Å)” value is “complex with 4-hydroxy-(S)-mandelate, 5zzq”. `O=C(O)C(=O)Cc1ccccc1` [PPY, phenylpyruvate]: in series [8], the “crystal structure (1.45 Å)” value was “The Y128F mutant liganded with phenylpyruvate, an oxidized product, when soaked with phenyllactate”.

B1: p-Hydroxymandelate oxidase (Hmo) from Amycolatopsis orientalis, wild type (enzyme)
chain: MTYVSLADLERAARDVLPGEIFDFLAGGSGTEASLVANRTALERVFVIPRMLRDLTDVTTEIDIFGRRAALPMAVAPVAYQRLFHPEGELAVARAARDAGVPYTICTLSSVSLEEIAAVGGRPWFQLYWLRDEKRSLDLVRRAEDAGCEAIVFTVDVPWMGRRLRDMRNGFALPEWVTAANFDAGTAAHRRTQGVSAVADHTAREFAPATWESVEAVRAHTDLPVVLKGILAVEDARRAVDAGAGGIVVSNHGGRQLDGAVPGIEMLGEIVAAVSGGCEVLVDGGIRSGGDVLKATALGASAVLVGRPVMWALAAAGQDGVRQLLELLAEEVRDAMGLAGCESVGAARRLNTKLGVV
notes: p-hydroxymandelate oxidase (Hmo, orf22), amplified from Amycolatopsis orientalis genomic DNA and subcloned into pET-28a(+) (NdeI/XhoI); one chain in the asymmetric unit, the dimer made by a crystallographic twofold axis; also called (S)-p-hydroxymandelate oxidase; WT Hmo; source: E. coli BL21(DE3), purified (Ni-NTA, size-exclusion chromatography)
Take B1: the “stoichiometry N” value in series [9] came to 2. In addition, the Km in “purified protein” was 160 µM.

B2: p-Hydroxymandelate oxidase (Hmo) Y128F mutant (enzyme, Amycolatopsis orientalis)
chain: MTYVSLADLERAARDVLPGEIFDFLAGGSGTEASLVANRTALERVFVIPRMLRDLTDVTTEIDIFGRRAALPMAVAPVAYQRLFHPEGELAVARAARDAGVPYTICTLSSVSLEEIAAVGGRPWFQLFWLRDEKRSLDLVRRAEDAGCEAIVFTVDVPWMGRRLRDMRNGFALPEWVTAANFDAGTAAHRRTQGVSAVADHTAREFAPATWESVEAVRAHTDLPVVLKGILAVEDARRAVDAGAGGIVVSNHGGRQLDGAVPGIEMLGEIVAAVSGGCEVLVDGGIRSGGDVLKATALGASAVLVGRPVMWALAAAGQDGVRQLLELLAEEVRDAMGLAGCESVGAARRLNTKLGVV
notes: p-hydroxymandelate oxidase (Hmo, orf22) of Amycolatopsis orientalis in pET-28a(+), point mutant made by QuikChange on the wild-type hmo gene; Purified by the same protocol as wild-type Hmo; source: E. coli BL21(DE3), purified (Ni-NTA, size-exclusion chromatography)
In the case of B2, the “stoichiometry N” value in [9] is 2.

By Kd is commonly meant a measure of binding affinity in units of concentration. Higher therefore signals weaker binding. What is called stoichiometry N is the number of molecules, sites or subunits per partner or assembly. In general, Km refers to the concentration of substrate that gives half-maximal velocity.

The record behind these values is paper PMC6677016, “Biochemical and structural explorations of α-hydroxyacid oxidases reveal a four-electron oxidative decarboxylation reaction” (Acta Crystallographica. Section D, Structural Biology, 2019).
